Legend:
advanced prostate cancer = details: randomized trial, men with advanced prostate cancer; cited from earlier work
LNCaP = details: androgen dependent human prostate cancer cell line; cited from earlier work
CYP24 mRNA = assay: Semi-quantitative RT-PCR of CYP24 exon 11-12 transcripts before and after calcitriol treatment; type: cell-based, human; details: after calcitriol treatment
Text: FIGS. 3A-3D provide graphical representations of CYP24 mRNA splicing patterns and cDNA amplification profiles. FIG. 3A provides a graphical map of the CYP24 gene from exon 9 through exon 11, an example of primer locations for obtaining cDNA using RT-PCR, and resulting products in the case of correct (280 bp) and aberrant (880 bp) splicing. FIG. 3B provides a graphical map of the CYP24 gene from exon 11 through exon 12 and RT-PCR cDNA product sizes for correctly spliced CYP24 mRNA from a CYP24 gene lacking a predictive SNP (150 bp), as well as the inclusion of intron 12 sequences in aberrantly spliced CYP24 mRNA when the predictive SNP is present (302 by transcript). FIG. 3C is a photographic representation of cDNA amplification products of unspliced or spliced CYP24 mRNA across exons 9-11 of the CYP24 mRNA. FIG. 3D is a photographic representation of cDNA amplification products across exons 11-12 of correctly spliced (150 bp) or aberrantly spliced (302 bp) CYP24 mRNA from various cancer cell lines.
Calcitriol treatment (T) modulated the relative expression of the two transcripts differently in the three prostate cancer cell lines. CYP24 enzyme activity is associated with the expression of the lower molecular weight transcript in the three prostate cancer cell lines as shown in Table 3 (D3=calcitriol), which describes the relationship between CYP24 protein activity phenotypes and exon 11-12 transcript size before (“C” in FIG. 3) and after (“T” in FIG. 3) calcitriol treatment in prostate cancer cell lines.

PC3 = details: PC3, androgen independent human prostate cancer cells; cited from earlier work
[1] = Serum calcitriol clearance in cancer patients by CYP24 genotype; type: in vivo, human; details: TT/TT genotype (positions 15752 and 15774 of SEQ ID NO:1) vs TC/TC; 30 patients, oral high doses of calcitriol; p-value=0.0377
Procedure: Elimination half life was calculated using the equation: T1/2=0.693/β, where β is the slope of the regression line of the terminal log serum calcitriol concentration versus time.
This Example provides an analysis of clinical ramifications of certain CYP24 polymorphisms. To obtain the data presented in this Example, we analyzed CYP24 polymorphisms in the intron between exon 9 and 10 in DNA samples obtained from 30 cancer patients treated with high doses of orally administered calcitriol. […] (Smith DC, et al., Clin Cancer Res. 1999; 5: 1339-1345).

DU145 = details: DU145, androgen independent human prostate cancer cells; cited from earlier work
CYP24 = CYP24 enzyme activity in untreated and calcitriol-treated human cancer cell lines; type: cell-based; details: for CYP24A1 enzyme activity profiles: baseline and calcitriol-induced
Text: FIG. 2 is a graphical depiction of CYP24 enzymatic activity measured in untreated and calcitriol treated human cancer cell lines.
This Example provides an analysis of CYP24 enzyme activity in untreated and calcitriol-treated human (prostate, breast, lung and colon) cancer cell lines to characterize their capacity to catabolize calcitriol.

## C=C1/C(=C\C=C2/CCC[C@]3(C)[C@@H]([C@H](C)CCCC(C)(C)O)CC[C@@H]23)C[C@@H](O)C[C@@H]1O [calcitriol]
Advanced prostate cancer
  potentiation of antitumor activity of docetaxel: potentiate the antitumor activity of docetaxel
LNCaP
  sensitivity to calcitriol growth inhibition: sensitive to calcitriol growth inhibition
CYP24 mRNA; DU145 prostate cancer cells
  Exon 11-12 size (bp), D3 treated: 135 bp
CYP24 mRNA; LNCaP prostate cancer cells
  Exon 11-12 size (bp), D3 treated: 307 bp
CYP24 mRNA; PC3 prostate cancer cells
  Exon 11-12 size (bp), D3 treated: 135 bp
PC3
  sensitivity to calcitriol growth inhibition: relatively resistant to calcitriol growth inhibition
[1]
  serum calcitriol elimination half life (T1/2): significantly lower T1/2 than the TC/TC genotype
DU145
  sensitivity to calcitriol growth inhibition: relatively resistant to calcitriol growth inhibition
CYP24; A549 lung cancer cells
  baseline and calcitriol-induced CYP24 enzyme profile: high baseline and calcitriol induced CYP24 activity
CYP24; DU145 prostate cancer cells
  CYP24A1 enzyme activity profiles: high baseline and calcitriol induced CYP24 activity
CYP24; DU145 prostate cancer cells, listed as D3
  CYP24A1 enzyme activity profiles: High baseline & D3 inducible
CYP24; H520 lung cancer cells
  baseline and calcitriol-induced CYP24 enzyme profile: negligible baseline and calcitriol-induced CYP24 activity
CYP24; HCT116 colon cancer cells
  baseline and calcitriol-induced CYP24 enzyme profile: high baseline and calcitriol induced CYP24 activity
CYP24; HT29 colon cancer cells
  baseline and calcitriol-induced CYP24 enzyme profile: barely detectable baseline CYP24 activity that is calcitriol-induced
CYP24; LNCaP prostate cancer cells
  CYP24A1 enzyme activity profiles: negligible baseline and calcitriol-induced CYP24 activity
CYP24; LNCaP prostate cancer cells, listed as D3
  CYP24A1 enzyme activity profiles: Negligible: baseline & D3 inducible
CYP24; MCF7 breast cancer cells
  baseline and calcitriol-induced CYP24 enzyme profile: barely detectable baseline CYP24 activity that is calcitriol-induced
CYP24; MDA231 breast cancer cells
  baseline and calcitriol-induced CYP24 enzyme profile: high baseline and calcitriol induced CYP24 activity
CYP24; PC3 prostate cancer cells
  CYP24A1 enzyme activity profiles: barely detectable baseline CYP24 activity that is calcitriol-induced
CYP24; PC3 prostate cancer cells, listed as D3
  CYP24A1 enzyme activity profiles: Negligible baseline & high D3 inducible

Source: patent US20100075316A1, “METHOD FOR I[…] VITAMIN D METABOLISM” (priority 2006, published 2010)
